Data on three molecules can be found in patent publication US20120308663A1, “LIPID NANOCAPSULES, METHOD FOR PREPARING SAME AND USE THEREOF AS A DRUG” (priority 2009, published 2012).

One data set has as its system rats. Conditions: in rats; cited from earlier work.
Another data set relates to HT-29 cells. In kind it is cell-based.
A further data set concerns mice. Conditions: in mice, intravenously; cited from earlier work.

Experimental for HT-29 cells: The IC50 was calculated as being the concentration of SN38-LNCs, of SN38 or unloaded LNCs causing 50% cell death.

On to `CCOCCOCCO` [Transcutol®HP, diethyleneglycol monoethyl ether], for which the DL50 with rats is > 5 g/kg.

In the case of `CCc1c2c(nc3ccc(O)cc13)-c1cc3c(c(=O)n1C2)COC(=O)[C@]3(O)CC` [free SN38, 7-ethyl-10-hydroxycamptothecin], the “Cytotoxicity relative to CPT11 (times greater)” value in the data set on HT-29 cells was “approximately 250 times”.

Consider “polyethyleneglycol-660 2-hydroxystearate [Solutol® HS 15]”, for which, in the data set on mice, the DL50 is given as > 3.16 g/kg.
